Some test systems named below: ACHN; HCT-116; HCT-15; HOP-62; KM12; LOX IMVI; Malme-3M; NCI-H23; NCI-H460; OVCAR-3; RPMI-8226; SF-295; SK-MEL-28; SR; SW-620; U-251; UACC-257; HL-60.
Holding throughout (experiment): NCI-60 cell line screen, 48 h

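Cultured in 96-well plates, cells were exposed to test compound for 48 hours across five concentrations. At the GI50, growth is halved.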 Activity calls are given as the source filed them. Rule as the data show it: active = GI50 up to about 1.1 µM and inactive = higher. Where only a bound is given, the exact number is not on record here.

Regarding `C=C1C(=O)O[C@H]2[C@H]1[C@H](OC(=O)/C(C)=C\C)CC(=C)[C@@H]1[C@H](O)[C@H]3O[C@@]3(C)[C@@]12O` [EUPATUNDIN], the GI50 in the experiment on ACHN is > 100 µM (inactive); in the experiment with HCT-116 it was > 100 µM (inactive); in the experiment with HCT-15, above 100 µM; in the experiment with HOP-62 it was > 100 µM (inactive); in the experiment with KM12 it was > 100 µM (inactive); with LOX IMVI, > 100 µM (inactive). Also, the GI50 in the experiment on Malme-3M, in the experiment on NCI-H23, with NCI-H460, in the experiment on OVCAR-3, in the experiment with RPMI-8226 and in the experiment with SF-295 was > 100 µM (inactive) each time. Further, the GI50 in the experiment with SK-MEL-28, in the experiment on SR, in the experiment on SW-620 and in the experiment with U-251 was > 100 µM (inactive) each time.
With `C=C(C)CC(C(=O)O)c1ccc(C)cc1` (centres undefined), the GI50 in the experiment with ACHN is > 100 µM (inactive); with HCT-116, > 100 µM (inactive); with HCT-15, above 100 µM; in the experiment on HOP-62, > 100 µM (inactive); with KM12, > 100 µM (inactive); in the experiment with LOX IMVI it was > 100 µM (inactive). Besides, the GI50 with Malme-3M, in the experiment with NCI-H23, in the experiment with NCI-H460, in the experiment with OVCAR-3, in the experiment with RPMI-8226 and in the experiment with SF-295 was > 100 µM (inactive) each time. The GI50 with SK-MEL-28, in the experiment on SR, in the experiment with SW-620, in the experiment with U-251 and in the experiment on UACC-257 was > 100 µM (inactive) throughout.
With `COC1CCCc2c(OC(C)=O)ccc(OC(C)=O)c21` (centres undefined), the GI50 in the experiment with ACHN is > 100 µM (inactive); with HCT-116, > 100 µM (inactive); in the experiment with HCT-15, above 100 µM; with HL-60, > 100 µM (inactive); with HOP-62, > 100 µM (inactive); with KM12, > 100 µM (inactive). Also, the GI50 in the experiment with LOX IMVI, with Malme-3M, in the experiment with NCI-H23, in the experiment with OVCAR-3, with SK-MEL-28 and in the experiment with SR was > 100 µM (inactive) throughout. In addition, the GI50 in the experiment on SW-620 and in the experiment with U-251 was > 100 µM (inactive) each time.
For the molecule `COc1cc(Nc2nc3cc(C(F)(F)F)ccc3nc2-c2ccccc2)cc(OC)c1OC`, the GI50 with ACHN is 65.5 µM (inactive); with HCT-116 it was > 10 µM (inactive); with HCT-15 it was above 100 µM; with HL-60, 39.3 µM (inactive); with HOP-62, 18.9 µM (inactive); with KM12, > 100 µM (inactive). Moreover, the GI50 is > 100 µM (inactive) in the experiment on LOX IMVI; > 100 µM (inactive) with Malme-3M; > 100 µM (inactive) in the experiment with NCI-H23; > 100 µM (inactive) in the experiment on NCI-H460; 73.3 µM (inactive) with OVCAR-3; 54.6 µM (inactive) with SF-295. In addition, the GI50 is 49.7 µM (inactive) in the experiment with SK-MEL-28; > 100 µM (inactive) in the experiment on SR; > 100 µM (inactive) with SW-620; 57.4 µM (inactive) in the experiment on U-251; 73.6 µM (inactive) in the experiment on UACC-257.
With `COc1ccc(C2Oc3cc(OC)c(O)c(C)c3[C@H]2C)cc1` (some centres undefined), the GI50 in the experiment with ACHN is 54.2 µM (inactive); with HCT-116, 35.6 µM (inactive); with HCT-15, 58.9 µM; with HL-60 it was 18.2 µM (inactive); with HOP-62, > 100 µM (inactive); in the experiment on KM12 it was > 100 µM (inactive). The GI50 in the experiment with LOX IMVI is 40.5 µM (inactive); in the experiment on Malme-3M, > 100 µM (inactive); with NCI-H23, 57.3 µM (inactive); with NCI-H460, 38.2 µM (inactive); in the experiment on OVCAR-3, > 100 µM (inactive); with RPMI-8226, > 10 µM (inactive). Further, the GI50 with SF-295 is > 100 µM (inactive); with SK-MEL-28, > 100 µM (inactive); with SW-620, 66.4 µM (inactive); in the experiment with U-251, > 100 µM (inactive); with UACC-257 it was > 100 µM (inactive).
Turning to `CN(C)CCC(CCN(C)C)=NO`, the GI50 with ACHN is > 100 µM (inactive); in the experiment with HCT-116, > 100 µM (inactive); in the experiment with HCT-15, above 100 µM; in the experiment on HL-60 it was > 100 µM (inactive); in the experiment with HOP-62, > 100 µM (inactive); with KM12, > 100 µM (inactive). The GI50 in the experiment on Malme-3M, in the experiment on NCI-H23, with NCI-H460, in the experiment with OVCAR-3, in the experiment with RPMI-8226 and in the experiment with SF-295 was > 100 µM (inactive) each time. Besides, the GI50 in the experiment with SK-MEL-28, in the experiment on SW-620, with U-251 and in the experiment with UACC-257 was > 100 µM (inactive) throughout.
In the case of `NC(=O)/N=C1\NC(Cc2ccccc2)C(=O)N1Cc1ccccc1` (centres undefined), the GI50 with ACHN was 80.4 µM (inactive); in the experiment with HCT-116 it was > 100 µM (inactive); with HCT-15, above 100 µM; in the experiment on HL-60, > 100 µM (inactive); in the experiment on HOP-62 it was > 100 µM (inactive); with KM12, > 100 µM (inactive). The GI50 in the experiment on LOX IMVI, in the experiment with NCI-H23, with NCI-H460, in the experiment with OVCAR-3, with RPMI-8226 and in the experiment on SF-295 was > 100 µM (inactive) in each case. Also, the GI50 in the experiment on SK-MEL-28, in the experiment on SR, with SW-620, in the experiment with U-251 and in the experiment with UACC-257 was > 100 µM (inactive) in each case.
For `COc1ccc(/C(=C/n2ccnc2)C(O)c2ccc(OC)c(OC)c2)cc1OC` (centres undefined), the GI50 is above 100 µM in the experiment with HCT-15; 28.8 µM (inactive) in the experiment with HL-60; > 100 µM (inactive) with HOP-62; > 100 µM (inactive) in the experiment with KM12; > 100 µM (inactive) in the experiment on LOX IMVI; > 100 µM (inactive) with NCI-H23. For the same molecule, the GI50 in the experiment with NCI-H460 was 71.6 µM (inactive); with OVCAR-3, > 100 µM (inactive); in the experiment with RPMI-8226 it was 70.6 µM (inactive); in the experiment with SF-295, > 100 µM (inactive); in the experiment with SK-MEL-28, > 100 µM (inactive); in the experiment with SR, 12.3 µM (inactive). Moreover, the GI50 with SW-620, with U-251 and in the experiment with UACC-257 was > 100 µM (inactive) throughout.
In the case of `O=S(O)CCCCSSCc1ccccc1CSSCCCCS(=O)O`, the GI50 with ACHN was 18.7 µM (inactive); in the experiment on HCT-15, 19.1 µM; with HL-60 it was 5.69 µM (inactive); with HOP-62, 35.3 µM (inactive); in the experiment with KM12 it was 19 µM (inactive); in the experiment with LOX IMVI, 10.5 µM (inactive). Further, the GI50 with Malme-3M is 8.91 µM (inactive); in the experiment on NCI-H23, 18 µM (inactive); with NCI-H460 it was 51.9 µM (inactive); in the experiment with OVCAR-3, 10.5 µM (inactive); in the experiment on RPMI-8226, 10.8 µM (inactive); with SF-295 it was 17 µM (inactive). Also, the GI50 was 13.1 µM (inactive) with SK-MEL-28, 25.8 µM (inactive) in the experiment with SW-620, 46.7 µM (inactive) in the experiment on U-251 and 3.87 µM (inactive) with UACC-257.
Regarding `O=C(O)C(CS)Nc1c2ccccc2[n+]([O-])c2ccccc12` (centres undefined), the GI50 in the experiment with ACHN was > 100 µM (inactive); in the experiment on HCT-116, 92 µM (inactive); with HCT-15 it was above 100 µM; with HL-60, 50.2 µM (inactive); in the experiment on HOP-62 it was > 100 µM (inactive); in the experiment with KM12 it was > 100 µM (inactive). Besides, the GI50 is > 100 µM (inactive) in the experiment on LOX IMVI; > 100 µM (inactive) in the experiment on Malme-3M; 87.7 µM (inactive) with NCI-H23; > 100 µM (inactive) in the experiment on NCI-H460; > 100 µM (inactive) in the experiment on OVCAR-3; 29.1 µM (inactive) with RPMI-8226. The GI50 in the experiment on SF-295, in the experiment with SK-MEL-28, with SW-620, in the experiment on U-251 and in the experiment on UACC-257 was > 100 µM (inactive) throughout.
On to `CSC1=NC=CCN1C`, for which the GI50 in the experiment with ACHN was > 100 µM (inactive); in the experiment on HCT-116, > 100 µM (inactive); with HCT-15, above 100 µM; in the experiment with HL-60, > 100 µM (inactive); with HOP-62 it was > 100 µM (inactive); in the experiment on KM12 it was > 100 µM (inactive). Moreover, the GI50 in the experiment with LOX IMVI, in the experiment with Malme-3M, with NCI-H23, with NCI-H460, in the experiment on OVCAR-3 and in the experiment with RPMI-8226 was > 100 µM (inactive) each time. Also, the GI50 in the experiment with SF-295, in the experiment with SK-MEL-28, in the experiment with SW-620, in the experiment with U-251 and in the experiment on UACC-257 was > 100 µM (inactive) in each case.
On to `CCOc1cccc2cccnc12`, for which the GI50 with ACHN, in the experiment with HCT-116, in the experiment on HL-60, with HOP-62, in the experiment on KM12 and in the experiment on LOX IMVI was > 100 µM (inactive) in each case. Moreover, the GI50 in the experiment with Malme-3M, in the experiment with NCI-H23, in the experiment with NCI-H460, with OVCAR-3, in the experiment with RPMI-8226 and with SF-295 was > 100 µM (inactive) throughout. For the same molecule, the GI50 in the experiment on SK-MEL-28, in the experiment on SW-620 and with UACC-257 was > 100 µM (inactive) in each case.

(Values after ChEMBL document CHEMBL1201862, “PubChem BioAssay data set” (2004).)
